Holding throughout (type): in vivo
Test [1] deals with ApoE−/− and ApoE−/−/IDO−/− mice. Kind of test: Serum cytokine in AngII-infused mice. The following applies: 4 weeks, mean ± s.e.m. An excerpt: IDO^−/− and ApoE^−/− mice were obtained from Jackson laboratory (Bar Harbor, Maine) in a C57BL/6 background. IDO^−/− mice were crossed with ApoE^−/− mice to generate ApoE^−/−/IDO^−/− mice. Mice were housed in temperature-controlled cages under a 12-hour light/dark cycle and given free access to water and normal chow. All procedures involving animals were approved by the Institutional Animal Care and Use Committee at the University of Oklahoma Health Sciences Center. […] Circ Res. (2014) 114:480-92.
AngII infusion is intensely associated with vascular inflammation, which is considered a key mediator of AngII-induced AAA formation. See Qin Z, et al., Angiotensin II-induced TLR4 mediated abdominal aortic aneurysm in apolipoprotein E knockout mice is dependent on STAT3. J Mol Cell Cardiol. (2015) 87:160-70; Owens A P, et al., MyD88 deficiency attenuates angiotensin II-induced abdominal aortic aneurysm formation independent of signaling through Toll-like receptors 2 and 4. Arterioscler Thromb Vasc Biol. (2011) 31:2813-9. […] Circ Res. (2014) 114:480-92. Similarly, an increase in IFN-γ expression was evident in the aortas of AngII-treated ApoE^−/− and ApoE^−/−/IDO^−/− mice. The consequent induction of IDO expression in the aortas of AngII-infused ApoE^−/− mice was also observed (FIGS. 2A, 2B, and 2E). […] This may be due to the high content of Trp in mouse diets.

The test system of test [2] is ApoE−/− mice. Kind of test: Acipimox preventing AngII-induced AAA in aged mice (Example 16). The following applies: AngII 1,000 ng/kg/min four weeks. The procedure:
To compare the effect of acipimox on treating AngII-induced abdominal aortic aneurysm in young (3 months old) or old (24 months old) mice, male ApoE^−/− mice in the aged mice group were treated with acipimox (0.1% wt) or vehicle control (water) by drinking water for 6 weeks. Four weeks later, mice in both age groups were infused with AngII (1,000 ng/kg/min) or saline (0.9% sodium chloride) by Alzet osmotic pumps for four weeks. AAA incidence and maximal abdominal aorta diameter were examined to evaluate the therapeutic effect of acipimox on AngII-induced AAA in old mice.
To quantify AAA incidence and size, the maximum width of abdominal aorta was measured with Image Pro Plus software (Media Cybernetics). Aneurysm incidence was quantified based on a definition of aneurysm as an external width of the suprarenal aorta that was increased by 50% or greater compared with aortas from saline-infused mice. The average diameter of the normal suprarenal aorta in control mice is 0.705 mm. Therefore, a threshold of 1.06 mm as evidence of aneurysm formation was set. […] After 4-weeks of AngII-infusion, mice where divided into two groups vehicle treated (n=10) or acipimox treated (n=15). Before treatment, the AAA incidence was 20% and 70% in young and old mice, respectively. After six weeks of treatment acipimox, AAA incidence decreased to 25% in the old mice group. […]

Test [3] deals with ApoE−/− mice. Put plainly: Acipimox preventing AngII-induced abdominal aortic aneurysm (Example 12). The procedure:
To evaluate whether acipimox has inhibitory effects on AngII-induced AAA formation, male ApoE^−/− mice at age eight weeks were administrated either 1) acipimox (0.1% wt) or 2) vehicle control (water) by drinking water. After four weeks, Alzet osmotic mini pumps (Model 2004) were implanted into each group. Pumps were filled either with 1) saline vehicle or 2) solutions of Ang II (Sigma Chemical Co., St. Louis, Missouri, USA) that delivered (subcutaneously) 1.44 mg/kg/day of Ang II for 28 days. Pumps were placed into the subcutaneous space of isoflurane anesthetized mice through a small incision in the back of the neck that was closed with surgical glue. All incision sites healed rapidly without the need for any medication.
To quantify AAA incidence and size, the maximum width of abdominal aorta was measured with Image Pro Plus software (Media Cybernetics). Aneurysm incidence was quantified based on a definition of aneurysm as an external width of the suprarenal aorta that was increased by 50% or greater compared with aortas from saline-infused mice. The average diameter of the normal suprarenal aorta in control mice is 0.8 mm. […]
Abdominal aorta dimeter was measured by ultrasound as described above.
The effect of acipimox on the speed of propagation (i.e. PWV), which is parameter for arterial stiffness, was analyzed.

For the substance “Angiotensin II (DRVYIHPF; Angiotensin-2; UniProt P01019 25-32, looked up) [AngII, Angiotensin II (Sigma, A9525) infused to induce AAA in mice]”, in test [1] (Apoe−/− mice), the CyPA is listed as 771.8 ± 36.8 pM, the IFN-y is 24.91 ± 1.75 pg/mL, the “IL -6” value worked out at 20.07 ± 3.25 pg/mL and the TNF - a came to 123.7 ± 18.2 pg/mL. Also, in test [1] (Apoe−/−/IDO−/− mice), the CyPA is recorded as 572.2 ± 42.7 pM, the IFN-y worked out at 28.32 ± 2.73 pg/mL, the “IL -6” value stood at 22.25 ± 5.45 pg/mL and the TNF - a turned out to be 118.5 ± 16.1 pg/mL. In addition, the AAA incidence in the test with ApoE−/− mice [2] (old (24 months old) ApoE−/− mice) is given as 70%. In addition, the AAA incidence in the test with ApoE−/− mice [2] (young (3 months old) ApoE−/− mice) is on record as 20%. The same substance yielded a mortality rate with ApoE−/− mice [3] (Ang II 1.44 mg/kg/day 28 days, with acipimox 0.1% wt or vehicle) of 28.6%. Further, the “mice that developed AAA (AAA incidence)” value with ApoE−/− mice [3] (Ang II 1.44 mg/kg/day s.c. 28 days, acipimox 0.1% wt or vehicle in drinking water, started four weeks before) is reported as “Eighty”.

(Values after US12280047B2, “Treatment of aneurysms” (Georgia State Research Foundation, Inc., priority 2017, dated 2025).)
